The values below come from patent publication US10041047B2, “Compositions and methods for epithelial stem cell expansion and culture” (The Brigham and Women's Hospital, Inc., priority 2013, dated 2018).

One experiment relates to single Lgr5-GFP cells. The experiment is described as follows: Culture of FACS-sorted single Lgr5-GFP cells: colony formation, proliferation, GFP expression. The format is cell-based. The following applies: for GFP expression / cell proliferation: single GFP-high cells, 7 day culture with ENR. How it is done: Crypts and single Lgr5-GFP cells were isolated as previously described (Sato et al., 2009). Briefly, the proximal half of the small intestine was harvested, opened longitudinally, and washed with cold PBS to remove luminal content. The tissue was then cut into 2-4 mm pieces with scissors and further washed 5-10 times with cold PBS by pipetting up and down using a 10-ml pipette. Tissue fragments were incubated with 2 mM EDTA in PBS for 30 min on ice. After removal of EDTA, tissue fragments were washed with PBS to release crypts. Supernatant fractions enriched in crypts were collected, passed through a 70 μm cell strainer and centrifuged at 300 g for 5 minutes. The cell pellet was re-suspended with cell culture media without growth factors and centrifuged at 150 g to remove single cells. Crypts were then cultured or used for single cell isolation. To obtain single cells, crypts were incubated in culture medium for 45 minutes at 37° C. and triturated with a glass pipette. Dissociated cells were passed through 20 μm cell strainer, negative stained with propidium iodide and single viable GFP-high cells were sorted by flow cytometry (FACS Aria, BD) as previously described (Sato et al., 2009). […] Isolated crypts or single cells were cultured as previously described (Sato et al., 2009) with minimal modification. Briefly, crypts or single cells were entrapped in Matrigel and plated at the center of wells in a 24-well plate. After polymerization of Matrigel (growth factor reduced; BD Bioscience), 500 μl of culture medium (Advanced DMEM/F12 (Life Technologies)) was added containing growth factors including EGF (50 ng/ml, Life Technologies), Noggin (100 ng/ml, Peprotech) and R-spondin 1 (500 ng/ml, R&D) and small molecules including CHIR99021 (3 μM, Stemgent) and Valproic Acid (1 mM, Sigma-Aldrich). For comparison of different culture conditions, small molecules or growth factors were added to freshly isolated crypts immediately after plating in Matrigel to test the ability to minimize potential differentiation of the ISC within the crypts and thus sustain crypt cultures. Cell culture media was changed every other day. For single cell culture, cells were embedded in Matrigel containing Jagged-1 peptide (1 μM; AnaSpec) and Y-27632 (10 μM; Tocris) was added for the first 2 days. Cells were passaged either as cell colonies as previously described (Sato et al., 2009) or as single cells. For single cell passage, cell culture medium was removed and Accutase (Life Technologies) was added. After incubation at 37° C. for 10-20 minutes, cell colonies were dissociated into single cells by pipetting. Cells were then washed, embedded in fresh Matrigel and plated into 24-well plates. Cells cultured in the CV condition were passaged every 6 days at a 1:20 split ratio.
The Rho kinase inhibitor Y-27632, which inhibits anoikis of single stem cells (Watanabe et al., 2007), was added for the first two days as previously described (Sato et al., 2009).

For experiment [1], the system named is Lgr5+ stem/progenitor cells derived from the mouse inner ear. The experiment is described as follows: Culture of inner ear (cochlear) Lgr5-GFP epithelial cells in Matrigel. The format is cell-based. As to conditions: organ of Corti single cells, Matrigel, 8 days. The source says:
The same culture condition (EGF, Noggin, R-spondin1, or “ENR”) as used in Lgr5+ small intestinal stem cell cultures was first established.
Isolated organ of Corti from Lgr5-GFP mice were dissociated into single cells using accutase and cultured in multiple combinations of soluble factors and small molecules in Matrigel for 8 days. The resulting cultures were further dissociated into single cells and analyzed using FACS. […] In addition, the combination of EGF, bFGF and IGF-1 (designated as EFI) improved cell proliferation and GFP expression compared with the ENR condition (FIG. 14A-14C).
To further investigate the effects of individual growth factors when combined with CHIR and VPA, growth factors including Mitogenic growth factors (EGF, bFGF and IGF-1) as well as the Wnt agonist R-spondin 1 in combination with CHIR and VPA were tested.

The test system is the same in experiment [2]. The experiment is described as above. The following applies: single cochlear epithelial cells, 11 days (FIG. 13B). The experiment is classed as cell-based.
In experiment [3] the test system is Notch pathway genes (Notch1, Hes1, Atoh1). The experiment is described as follows: Real-time RT-PCR of Notch pathway genes in cultured crypts. The format is cell-based, mouse. The following applies: VPA added to ENR or ENR-C for 24 hours. In general terms: Quantitative PCR measures a nucleic acid by following its amplification.
Description: Crypts were cultured in ENR-C condition with or without DAPT (D, 5 μM) and varying concentration of VPA (V, 0.25-4 mM) for 3 days. […] FIGS. 11B and 11C depict crypts cultured in the ENR (FIG. 11B) or ENR+CHIR (FIG. 11C) conditions for 4 days followed by addition of VPA at different concentrations for another 24 hours. The expression of Notch1, Hes1 and Atoh1 were analyzed by Real-time RT-PCR.
To investigate the effect of VPA on the activation of the Notch pathway, cells cultured in ENR or ENRC conditions were treated with VPA and analyzed for the expression of Notch pathway genes.
Experiment [4] relates to Lgr5+ stem cells from the colon. The experiment can be described thus: Colon crypt culture, Lgr5-GFP expression. The format is cell-based, mouse. The following applies: colon crypts (FIG. 3F). The text has this:
FIGS. 3A and 3B depict colony numbers and live single cell numbers, respectively, from triplicate wells enumerated at each time point. Error bars indicate S.D. In FIG. 3A, the series are, from left to right, Day 0, Day 2, Day 4, Day 6, Day 8, and Day 10. FIG. 3C depicts FACS sorting of freshly isolated single Lgr5-GFP+ cells. A GFP^high single cell population was collected. Representative FACS analysis and the gating strategy to define the GFP+ cell population is shown. […] The GFP-population represents Lgr5- cells as well as Lgr5+/GFP- cells (i.e. GFP silenced stem cells), which is present in all unsorted crypt cultures, but not in sorted single Lgr5-GFP cell cultures (See FIG. 2C). A total of 10,000 live cells were analyzed for each sample. FIG. 3D depicts growth factor requirements for self-renewal of Lgr5+ stem cells in the CV culture condition. Crypts were cultured for 6 days in the presence of CHIR and VPA, with EGF, Noggin, R-spondin 1 and their combinations, as indicated. E: EGF (50 ng/ml); N: Noggin (100 ng/ml); R: R-spondin 1 (500 ng/ml); […] (1 mM). FIG. 3E depicts crypts cultured for 6 days in multiple conditions as indicated. GFP and brightfield images are shown. Scale bars: 200 μm. FIG. 3F depicts morphology and Lgr5-GFP expression of colon crypts cultured in ENR, ENR-C and ENR-CV conditions. […]

For experiment [5], the system named is human small intestinal crypts. The experiment can be described thus: Culture of human small intestinal crypts: LGR5 expression (RT-PCR) and cell number. The format is cell-based. The following applies: cell numbers at day 9 after seeding (FIG. 25A). The source says: Human small intestinal crypts were isolated from a resected normal small intestinal specimen and cultured as described in Example 1. The same cell culture solutions used in the culture of mouse small intestinal stem cells/crypts, which comprise a combination of CHIR99021 and VPA or Tubastatin A added to the ENR (EGF, Noggin, R-Spondin 1) condition, were compared to published cell culture solutions for human intestinal stem cells/crypts (Jung et al., 2011; Sato et al., 2011). RT-PCR was used to assess the maintenance of epithelial stem cells in the culture, specifically by determining the self-renewal or differentiation status. LGR5 was used as a stem cell marker and ALPI, MUC2, CHGA and LYZ were used as differentiation markers. Cell growth was assessed by counting the cell number in the cultures and by observing the morphology and size of colonies.

As for `Cc1cnc(-c2cnc(NCCNc3ccc(C#N)cn3)nc2-c2ccc(Cl)cc2Cl)[nH]1` [CHIR99021, 6-[[2-[[4-(2,4-Dichlorophenyl)-5-(5-methyl-1H-imidazol-2-yl)-2-pyrimidinyl]amino]ethyl]amino]-3-pyridinecarbonitrile], the “increase of colony-forming efficiency” value in the experiment with single Lgr5-GFP cells (CHIR added to ENR, single Lgr5-GFP+ cells) is recorded as 20-50 fold. Besides, in the experiment on single Lgr5-GFP cells, the GFP expression result was “only moderately increased” and the cell proliferation result is “significantly increased cell proliferation”. Further, in experiment [1], the “GFP expression (in words)” value is given as “not CHIR or VPA alone” and the “cell proliferation (in words)” value is “not CHIR or VPA alone”. Also, in experiment [2], the GFP expression entry was “not CHIR alone”, the cell proliferation entry is recorded as “not CHIR alone” and the colony-forming efficiency result is “not CHIR alone”.
On to `CCCC(CCC)C(=O)O` [Valproic Acid], for which, in the experiment on single Lgr5-GFP cells, the GFP expression entry is listed as “promoted GFP expression” and the cell proliferation entry is “minimal pro-proliferative effect”. The “colony-forming efficiency (in words)” value in the experiment on single Lgr5-GFP cells (single Lgr5-GFP+ cells, agent(s) added to ENR) is given as “only weakly increased”. In experiment [3], the “expression of Hes1” value was “moderately decreased” and the “expression of Notch1” value is reported as “moderately decreased”. In addition, in experiment [4], the “GFP expression of Lgr5+ stem cells from the colon” value is “promoted GFP expression”. Besides, in experiment [1], the “GFP expression (in words)” value is “not CHIR or VPA alone” and the “cell proliferation (in words)” value is on record as “not CHIR or VPA alone”. In experiment [5], the “proliferation of human small intestinal crypts (cell number)” value is “increased cell proliferation”.
